Test results published in patent publication US11638706B2, “Methods for treating Huntington's disease” (PTC Therapeutics, Inc., priority 2015, dated 2023).
pIC50: −log10 of the molar value.

Tested on: Huntingtin protein (HTT)
Assay: Endogenous Huntingtin Protein Assay (MSD electrochemiluminescence ELISA; MW1 or MAB2166 capture, #5656S detection)
Format: cell-based, human
Protocol: The Endogenous Huntingtin Protein assay used in Example 2 was developed using the Best Pair antibodies identified in Table 2, providing highly sensitive, high-throughput detection assays for polyglutamine-expanded (mHTT) and total human HTT in multiple cell systems. The platform used for the assay is the ELISA-based Meso Scale Discovery (MSD) electrochemiluminescence assay platform.
Meso Scale Discovery (MSD) 96-well or 384-well plates were coated overnight at 4° C. with MW1 (expanded polyglutamine) or MAB2166 monoclonal antibody (for capture) at a concentration of 1 μg/mL in PBS (30 μL per well). Plates were then washed three times with 300 μL wash buffer (0.05% Tween-20 in PBS) and blocked (100 μL blocking buffer; 5% BSA in PBS) for 4-5 hours at room temperature with rotational shaking and then washed three times with wash buffer.
Samples (25 μL) were transferred to the antibody-coated MSD plate and incubated overnight at 4° C. After removal of the lysates, the plate was washed three times with wash buffer, and 25 μL of #5656S (Cell signaling; rabbit monoclonal) secondary antibody (diluted to 0.25 μg/mL in 0.05% Tween-20 in blocking buffer) was added to each well and incubated with shaking for 1 Hour at room temperature. Following incubation with the secondary antibody, the wells were rinsed with wash buffer after which 25 μL of goat anti-rabbit SULFO TAG secondary detection antibody (required aspect of the MSD system) (diluted to 0.25 μg/mL in 0.05% Tween-20 in blocking buffer) was added to each well and incubated with shaking for 1 hour at room temperature. After rinsing three times with wash buffer, 150 μL of read buffer T with surfactant (MSD) were added to each empty well, and the plate was imaged on a SI 6000 imager (MSD) according to manufacturers' instructions provided for 96- or 384-well plates.

pIC50 | Compound
5.05 to 5.52 | CC1(C)CC(Oc2ccc(-c3ccc(O)cc3O)nn2)CC(C)(C)N1 [Cpd 455, 4-{6-[(2,2,6,6-tetramethylpiperidin-4-yl)oxy]pyridazin-3-yl}benzene-1,3-diol]
5.05 to 5.52 | CC1(C)CC(Oc2ccc(-c3nc(-c4cn[nH]c4)ncc3N)nn2)CC(C)(C)N1 [Cpd 457, 2-(1H-pyrazol-4-yl)-4-{6-[(2,2,6,6-tetramethylpiperidin-4-yl)oxy]pyridazin-3-yl}pyrimidin-5-amine]
5.05 to 5.52 | CC1(C)CC(Oc2ccc(-c3c(F)cc(-c4cn[nH]c4)cc3F)nn2)CC(C)(C)N1 [Cpd 458, 3-[2,6-difluoro-4-(1H-pyrazol-4-yl)phenyl]-6-[(2,2,6,6-tetramethylpiperidin-4-yl)oxy]pyridazine]
5.05 to 5.52 | Oc1cc(-c2cn[nH]c2)ccc1-c1ccc(N2CC3(CCNC3)C2)nn1 [Cpd 459, 2-[6-(2,6-diazaspiro[3.4]oct-2-yl)pyridazin-3-yl]-5-(1H-pyrazol-4-yl)phenol]
5.05 to 5.52 | CC1(C)CC(Oc2ccc(-c3ccc(-c4cn[nH]c4)nc3O)nn2)CC(C)(C)N1 [Cpd 461, 6-(1H-pyrazol-4-yl)-3-{6-[(2,2,6,6-tetramethylpiperidin-4-yl)oxy]pyridazin-3-yl}pyridin-2-ol]
5.05 to 5.52 | CC1(C)CC(Oc2ccc(-c3ccc(-c4cn[nH]c4)cc3C(F)F)nn2)CC(C)(C)N1 [Cpd 464, 3-[2-(difluoromethyl)-4-(1H-pyrazol-4-yl)phenyl]-6-[(2,2,6,6-tetramethylpiperidin-4-yl)oxy]pyridazine]

Compound | pIC50
CN(c1ccc(-c2ccc(-c3cn[nH]c3)cc2Cl)nn1)C1CC(C)(C)NC(C)(C)C1 [Cpd 456, 6-[2-chloro-4-(1H-pyrazol-4-yl)phenyl]-N-methyl-N-(2,2,6,6-tetramethylpiperidin-4-yl)pyridazin-3-amine] | 5.05 to 5.52
CN(c1ccc(-c2ccc(-c3cn[nH]c3)nc2O)nn1)C1CC(C)(C)NC(C)(C)C1 [Cpd 460, 3-{6-[methyl(2,2,6,6-tetramethylpiperidin-4-yl)amino]pyridazin-3-yl}-6-(1H-pyrazol-4-yl)pyridin-2-ol] | 5.05 to 5.52
CN(c1nnc(Oc2cccc(-c3cn[nH]c3)c2)s1)C1CC(C)(C)NC(C)(C)C1 [Cpd 462, N,2,2,6,6-pentamethyl-N-{5-[3-(1H-pyrazol-4-yl)phenoxy]-1,3,4-thiadiazol-2-yl}piperidin-4-amine] | 5.05 to 5.52
CN(c1nnc(Oc2ccc(-c3cn[nH]c3)cc2)s1)C1CC(C)(C)NC(C)(C)C1 [Cpd 463, N,2,2,6,6-pentamethyl-N-{5-[4-(1H-pyrazol-4-yl)phenoxy]-1,3,4-thiadiazol-2-yl}piperidin-4-amine] | 5.05 to 5.52
CN(c1ccc(-c2ccc(-c3cn[nH]c3)cc2C(F)F)nn1)C1CC(C)(C)NC(C)(C)C1 [Cpd 465, 6-[2-(difluoromethyl)-4-(1H-pyrazol-4-yl)phenyl]-N-methyl-N-(2,2,6,6-tetramethylpiperidin-4-yl)pyridazin-3-amine] | 5.05 to 5.52
